Assay results taken from the NIST ThermoML archive (doi:10.1021/je0604030).
± gives the expanded uncertainty stated by the source.

Conditions: Liquid, Ebulliometric method (Recirculating still)

Row | SMILES | vapor or sublimation pressure (159.61 K) [kPa] | vapor or sublimation pressure (161.58 K) [kPa] | vapor or sublimation pressure (169.38 K) [kPa] | vapor or sublimation pressure (173.9 K) [kPa] | vapor or sublimation pressure (178.93 K) [kPa]
1 | C [methane] | 1567 ± 50 | 1695 ± 54 | 2276 ± 73 | 2672 ± 86 | 3170 ± 100
2 | FC(F)(F)F [tetrafluoromethane] | 243 ± 8 | 269 ± 9 | 431 ± 14 | 517 ± 17 | 651 ± 21
